Source: publication PMC9623849 (iScience, 2022)
Where two headings read alike, the source gives them in different places.

Key:
in vitro = conditions: African green monkey, CC50, Table 1; VeroE6 cells, WST-8
[1] = mice
[2] = tested on: SARS-CoV-2 WK-521 (ancestral Wuhan strain); format: cell-based; conditions: Table 2; VeroE6 cells, RNA-qPCR
[3] = tested on: SARS-CoV-2 WK-521 infected VeroE6 cells; conditions: concentrations up to 100 μM (Figure S3)
SARS-CoV-2 M^pro/3CL^pro = SARS-CoV-2 M^pro/3CL^pro (Severe acute respiratory syndrome coronavirus 2, UniProt P0DTD1); experiment: biochemical; conditions: for IC50 fold change to 5h (in parentheses): Table 1
in vivo = conditions: female, Jcl:ICR (ICR), mouse, iv, 2 mg/kg, mice, i.v. 2.0 mg/kg, 240 min

Structure (SMILES) | CC50 (in vitro) [nM] | blood concentrations after administration ([1]; i.p. 20 mg/kg) | blood concentrations after administration ([1]; i.v. 2.0 mg/kg) | blood concentrations after administration ([1]; p.o.) | EC75 [2] [nM] | EC99 [2] [µM] | cytotoxicity in immunostaining experiments [3] | IC50 (SARS-CoV-2 M^pro/3CL^pro) [nM] | IC50 fold change to 5h (in parentheses) (SARS-CoV-2 M^pro/3CL^pro) | half-life (in vivo) [min] | half-life, times longer than that of the parent compound ([1]; i.v. 2.0 mg/kg, relative to 5h (2))
COc1ccc(F)c2[nH]c(C(=O)N[C@@H](CC(C)C)C(=S)N[C@@H](C[C@@H]3CCNC3=O)C(=O)c3nc4c(F)cccc4s3)cc12 [Compound 4] | > 100000 | maintained remarkably higher blood concentrations than compound 3 | higher blood concentrations of compound 4 were maintained compared with those of compound 3 after 60 min, and even 240 min | maintained remarkably higher blood concentrations for the first day than compound 3 | 590 ± 30 | 4.1 ± 3.1 | no significant cytotoxicity at concentrations up to 100 μM | 370 ± 15 | 1.0 | – | –
CC(C)(C)[C@H](NC(=O)C(F)(F)F)C(=O)N1C[C@H]2[C@@H]([C@H]1C(=O)N[C@H](C#N)C[C@@H]1CCNC1=O)C2(C)C [PF-07321332 (1), Nirmatrelvir, reference compound] | > 100000 | – | – | – | 4400 ± 210 | 9.7 ± 0.015 | – | – | – | < 23 | –
COc1ccc(F)c2[nH]c(C(=O)N[C@@H](CC(C)C)C(=O)N[C@@H](C[C@@H]3CCNC3=O)C(=O)c3nc4c(F)cccc4s3)cc12 [Compound 3] | > 100000 | – | – | – | 460 ± 20 | 0.97 ± 0.0020 | no significant cytotoxicity at concentrations up to 100 μM | 37 ± 1 | 0.10 | – | –
CCC(CC)COC(=O)[C@H](C)N[P@](=O)(OC[C@H]1O[C@@](C#N)(c2ccc3c(N)ncnn23)[C@H](O)[C@@H]1O)Oc1ccccc1 [Remdesivir, reference compound] | > 100000 | – | – | – | – | – | – | – | – | – | –
CC(C)C[C@H](NC(=O)c1cc2c(F)cc(F)cc2[nH]1)C(=O)N[C@@H](C[C@@H]1CCNC1=O)C(=O)c1nc2cc(F)ccc2s1 [Compound 54] | > 100000 | – | – | – | – | – | – | 540 ± 20 | 1.5 | – | –
CC(C)C[C@H](NC(=O)c1cc2c(F)ccc(F)c2[nH]1)C(=O)N[C@@H](C[C@@H]1CCNC1=O)C(=O)c1nc2cc(F)ccc2s1 [Compound 44] | > 100000 | – | – | – | – | – | – | 120 ± 10 | 0.34 | ~30 | –
COc1cccc2[nH]c(C(=O)N[C@@H](CC(C)C)C(=S)N[C@@H](C[C@@H]3CCNC3=O)C(=O)c3nc4ccccc4s3)cc12 [Compound 60] | > 100000 | – | High blood concentrations of compound 60 were maintained after 60 min, and even 240 min had passed | – | – | – | – | 990 ± 60 | 2.8 | 50 to 60 | 2–3 times
